What is called IC50 is the concentration that gives 50% inhibition.

This assay deals with T1, NaV 1.7 (Homo sapiens, UniProt Q15858).
T1 construct: expressed in transfected cells; host or cells: HEK cells
T1 sequence (Q15858 whole entry): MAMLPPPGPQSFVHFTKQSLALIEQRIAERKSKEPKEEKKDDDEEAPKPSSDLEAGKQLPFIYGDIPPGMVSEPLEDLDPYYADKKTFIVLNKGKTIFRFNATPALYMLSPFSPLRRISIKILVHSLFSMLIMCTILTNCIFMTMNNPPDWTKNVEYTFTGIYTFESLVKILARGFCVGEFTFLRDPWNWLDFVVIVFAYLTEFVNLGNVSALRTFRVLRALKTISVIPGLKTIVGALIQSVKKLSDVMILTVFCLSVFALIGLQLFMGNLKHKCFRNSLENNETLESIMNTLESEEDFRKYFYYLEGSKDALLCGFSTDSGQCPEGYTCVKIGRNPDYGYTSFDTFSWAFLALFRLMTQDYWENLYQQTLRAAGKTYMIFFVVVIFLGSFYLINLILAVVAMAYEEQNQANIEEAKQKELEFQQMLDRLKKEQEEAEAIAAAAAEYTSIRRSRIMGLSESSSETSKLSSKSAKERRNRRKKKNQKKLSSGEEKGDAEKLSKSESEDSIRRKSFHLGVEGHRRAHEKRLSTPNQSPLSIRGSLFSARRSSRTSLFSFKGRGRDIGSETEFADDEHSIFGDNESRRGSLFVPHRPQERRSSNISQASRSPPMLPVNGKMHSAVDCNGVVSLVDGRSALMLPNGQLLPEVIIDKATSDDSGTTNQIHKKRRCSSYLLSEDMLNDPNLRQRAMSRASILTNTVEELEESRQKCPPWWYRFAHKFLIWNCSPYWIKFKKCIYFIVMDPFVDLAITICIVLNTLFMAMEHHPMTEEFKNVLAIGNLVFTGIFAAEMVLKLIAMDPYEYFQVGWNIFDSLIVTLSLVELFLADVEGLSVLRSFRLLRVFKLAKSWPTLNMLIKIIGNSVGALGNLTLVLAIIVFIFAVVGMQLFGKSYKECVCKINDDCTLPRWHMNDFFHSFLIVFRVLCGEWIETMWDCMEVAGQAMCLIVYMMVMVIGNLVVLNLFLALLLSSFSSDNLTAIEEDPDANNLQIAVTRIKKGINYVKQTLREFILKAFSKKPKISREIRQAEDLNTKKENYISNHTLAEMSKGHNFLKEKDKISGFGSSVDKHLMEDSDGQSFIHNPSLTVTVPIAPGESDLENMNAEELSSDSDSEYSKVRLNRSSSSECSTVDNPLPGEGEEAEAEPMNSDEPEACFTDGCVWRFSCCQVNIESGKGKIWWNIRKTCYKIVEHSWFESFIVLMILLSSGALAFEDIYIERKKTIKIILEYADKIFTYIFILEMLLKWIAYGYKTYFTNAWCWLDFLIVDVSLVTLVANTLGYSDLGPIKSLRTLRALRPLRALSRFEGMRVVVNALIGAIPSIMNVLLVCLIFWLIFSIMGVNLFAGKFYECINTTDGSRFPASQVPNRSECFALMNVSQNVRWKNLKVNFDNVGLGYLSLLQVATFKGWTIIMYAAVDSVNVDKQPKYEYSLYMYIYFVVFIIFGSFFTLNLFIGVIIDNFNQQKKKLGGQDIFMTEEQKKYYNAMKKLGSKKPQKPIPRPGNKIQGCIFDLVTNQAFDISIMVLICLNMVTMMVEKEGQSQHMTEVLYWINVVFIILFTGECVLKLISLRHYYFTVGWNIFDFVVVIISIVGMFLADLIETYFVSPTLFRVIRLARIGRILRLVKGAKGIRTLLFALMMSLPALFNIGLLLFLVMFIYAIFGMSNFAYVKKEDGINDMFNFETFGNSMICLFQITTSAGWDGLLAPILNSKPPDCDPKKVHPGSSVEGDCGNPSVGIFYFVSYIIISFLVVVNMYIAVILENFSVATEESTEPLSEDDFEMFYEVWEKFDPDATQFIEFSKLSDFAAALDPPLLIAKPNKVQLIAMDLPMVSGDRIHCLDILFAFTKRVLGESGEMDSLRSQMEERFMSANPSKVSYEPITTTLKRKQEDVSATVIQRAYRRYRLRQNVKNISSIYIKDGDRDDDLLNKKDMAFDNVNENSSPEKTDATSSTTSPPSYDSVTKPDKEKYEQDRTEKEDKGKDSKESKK
As to the kind of experiment: E-VIPR optical membrane potential assay with electrical stimulation. In kind it is cell-based. The following applies: active against one or more sodium channels; assay/subtype not specified in Table 4; read-out: IC50 Binned Activity Data. A digest of the protocol: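 HEK cells expressing human NaV1.7, loaded with CC2-DMPE/DiSBAC6(3) FRET dyes, then exposed to compounds for 20-35 min at room temperature (0.625% DMSO). Electrical stimulation applied for 9 s with 400 Hz scanning. Read-out is the background-subtracted 460/580 nm emission ratio, normalized.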
As to `COc1cc(C(=O)N2CCC3(c4ccccc4)CC3C2)ccc1OCCC(C)C` (centres unmarked) [Compound 151], the IC50 was at most 2000 nM.

As to `Cc1cc(C(=O)N2CC[C@]3(c4ncccc4Cl)OCOC3C2)ccc1OCC(C)(C)F` (some centres unmarked) [Compound 152], the half-maximal inhibitory concentration (IC50) was at most 2000 nM.

Take `COc1nc(C(=O)N2CC[C@]3(c4cc(C(F)(F)F)ccn4)OCOC3C2)ccc1OCCOC(F)(F)F` (some centres unmarked) [Compound 153]: the IC50 was at most 2000 nM.

On to `COc1cc(C(=O)N2CC[C@]3(c4cccc(C)n4)OCOC3C2)ccc1OCCOC(F)(F)F` (some centres unmarked) [Compound 154], for which the half-inhibitory concentration (IC50) is at most 2000 nM.

Regarding `COc1cc(C(=O)N2CC[C@]3(c4ncccc4Cl)OCOC3C2)ccc1OCCOC(F)(F)F` (some centres unmarked) [Compound 155], the IC50 was at most 2000 nM.

Take `CC(Oc1ccc(C(=O)N2CC[C@]3(c4ccccn4)OCOC3C2)cc1Cl)C(F)(F)F` (some centres unmarked) [Compound 156]: the IC50 was at most 2000 nM.

Consider `O=C(c1ccc(OCCOC(F)(F)F)c(Cl)c1)N1CC[C@]2(c3ccccn3)OCOC2C1` (some centres unmarked) [Compound 157], for which the IC50 is at most 2000 nM.

As to `COc1cc(C(=O)N2CCC3(c4ccccc4)CC3C2)ccc1OCC(C)(C)F` (centres unmarked) [Compound 158], the IC50 is at most 2000 nM.

With `[2H]C1([2H])OC2CN(C(=O)c3ccc(OCCOC(F)(F)F)c(OC)n3)CC[C@]2(c2ccccc2)O1` (some centres unmarked) [Compound 159], the IC50 was at most 2000 nM.

For the compound `Cc1nc(C(=O)N2CC[C@]3(c4ccccn4)OCOC3C2)ccc1OCCOC(F)(F)F` (some centres unmarked) [Compound 160], the IC50 is at most 2000 nM.

On to `Cc1cc(C(=O)N2CC[C@]3(c4ccccc4)OCOC3C2)ccc1OCC(C)(C)F` (some centres unmarked) [Compound 161], for which the IC50 is at most 2000 nM.

For `COc1nc(C(=O)N2CC[C@]3(c4cccc(F)c4F)OCOC3C2)ccc1OCCOC(F)(F)F` (some centres unmarked) [Compound 162], the IC50 is at most 2000 nM.

With `COc1cc(C(=O)N2CC[C@]3(c4cc(F)ccc4F)OCOC3C2)ccc1OCCOC(F)(F)F` (some centres unmarked) [Compound 163], the IC50 is at most 2000 nM.

On to `CC(COc1ccc(C(=O)N2CC[C@]3(c4ccccn4)OCOC3C2)cc1Cl)CC(F)(F)F` (some centres unmarked) [Compound 164], for which the IC50 is at most 2000 nM.

In the case of `Cc1cc(C(=O)N2CC[C@]3(c4ccccn4)OCOC3C2)ccc1OCCOC(F)(F)F` (some centres unmarked) [Compound 165], the IC50 is at most 2000 nM.

As for `O=C(c1ccc(OCC(F)(F)C(F)F)c(Cl)c1)N1CC[C@]2(c3ccccn3)OCOC2C1` (some centres unmarked) [Compound 166], the IC50 is at most 2000 nM.

As to `Cc1cc(C(=O)N2CC[C@]3(c4nccs4)OCOC3C2)ccc1OCCOC(F)(F)F` (some centres unmarked) [Compound 167], the IC50 was at most 2000 nM.

For the compound `Cc1cc(C(=O)N2CC[C@@]3(c4nccs4)OCOC3C2)ccc1OCCOC(F)(F)F` (some centres unmarked) [Compound 168], the IC50 is at most 2000 nM.

As for `COc1cc(C(=O)N2CC[C@]3(c4cccc(C(F)(F)F)n4)OCOC3C2)ccc1OCCOC(F)(F)F` (some centres unmarked) [Compound 169], the concentration for half-maximal inhibition (IC50) is at most 2000 nM.

For `COc1cc(C(=O)N2CC[C@]3(c4cccc(Cl)c4)OCOC3C2)ccc1OC(C)C(F)(F)F` (some centres unmarked) [Compound 170], the IC50 was at most 2000 nM.

Regarding `Cc1cc(C(=O)N2CCC3(c4ccccc4)CC3C2)ccc1OCC(C)(C)O` (centres unmarked) [Compound 171], the IC50 is at most 2000 nM.

`[2H]C1([2H])OC2CN(C(=O)c3ccc(OCC4CC(F)(F)C4)c(OC)c3)CC[C@]2(c2cc(F)cc(F)c2)O1` (some centres unmarked) [Compound 172]: the IC50 is at most 2000 nM.

For `[2H]C1([2H])OC2CN(C(=O)c3ccc(OC(C)C(F)(F)F)c(OC)c3)CC[C@]2(c2cc(F)cc(F)c2)O1` (some centres unmarked) [Compound 173], the IC50 is at most 2000 nM.

In the case of `[2H]C1([2H])OC2CN(C(=O)c3ccc(OCCOC(F)(F)F)c(OC)c3)CC[C@]2(c2cc(F)cc(F)c2)O1` (some centres unmarked) [Compound 174], the IC50 was at most 2000 nM.

As for `COc1nc(C(=O)N2CC[C@]3(c4cccc(Cl)c4)OCOC3C2)ccc1OCC1CC(F)(F)C1` (some centres unmarked) [Compound 175], the IC50 was at most 2000 nM.

Regarding `COc1cc(C(=O)N2CC[C@]3(c4cccc(Cl)c4)OCOC3C2)ccc1OCC1CC(F)(F)C1` (some centres unmarked) [Compound 176], the 50% inhibitory concentration (IC50) is at most 2000 nM.

Take `[2H]C1([2H])OC2CN(C(=O)c3ccc(OCC4CC(F)(F)C4)c(OC)c3)CC[C@]2(c2cccc(F)c2)O1` (some centres unmarked) [Compound 177]: the IC50 was at most 2000 nM.

Turning to `COc1nc(C(=O)N2CCC3(c4ccccc4)CC3C2)ccc1OCCOC(F)(F)F` (centres unmarked) [Compound 178], the IC50 is at most 2000 nM.

For `COc1cc(C(=O)N2CC[C@]3(c4cc(C(F)(F)F)ccn4)OCOC3C2)ccc1OCCOC(F)(F)F` (some centres unmarked) [Compound 179], the 50% inhibitory concentration (IC50) was at most 2000 nM.

With `COc1nc(C(=O)N2CC[C@]3(c4cccc(F)c4)OCOC3C2)ccc1OCC1CC(F)(F)C1` (some centres unmarked) [Compound 180], the IC50 is at most 2000 nM.

With `[2H]C1([2H])OC2CN(C(=O)c3ccc(OCCOC(F)(F)F)c(OC)c3)CC[C@]2(c2cccc(F)c2)O1` (some centres unmarked) [Compound 181], the IC50 is at most 2000 nM.

Consider `Cc1cc(C(=O)N2CC[C@]3(c4ncccc4Cl)OCOC3C2)ccc1OCCOC(F)(F)F` (some centres unmarked) [Compound 182], for which the IC50 was at most 2000 nM.

Turning to `COc1nc(C(=O)N2CC[C@]3(c4cccc(Cl)c4)OCOC3C2)ccc1OCCOC(F)(F)F` (some centres unmarked) [Compound 183], the 50% inhibitory concentration (IC50) was at most 2000 nM.

For the compound `COc1cc(C(=O)N2CC[C@]3(c4cccc(F)c4F)OCOC3C2)ccc1OCC1CC(F)(F)C1` (some centres unmarked) [Compound 184], the IC50 was at most 2000 nM.

`COc1nc(C(=O)N2CC[C@]3(c4cccc(F)c4)OCOC3C2)ccc1OCC(F)(F)C(F)F` (some centres unmarked) [Compound 185]: the half-maximal inhibitory concentration (IC50) is at most 2000 nM.

As for `COc1cc(C(=O)N2CC[C@]3(c4cccc(F)c4F)OCOC3C2)ccc1OCCOC(F)(F)F` (some centres unmarked) [Compound 186], the IC50 is at most 2000 nM.

`COc1cc(C(=O)N2CC[C@]3(c4cccc(F)c4F)OCOC3C2)ccc1OC(C)C(F)(F)F` (some centres unmarked) [Compound 187]: the IC50 was at most 2000 nM.

With `COc1nc(C(=O)N2CC[C@]3(c4cccc(F)c4)OCOC3C2)ccc1OCCOC(F)(F)F` (some centres unmarked) [Compound 188], the IC50 is at most 2000 nM.

`[2H]C1([2H])OC2CN(C(=O)c3ccc(OCCOC(F)(F)F)c(OC)n3)CC[C@]2(c2cccc(F)c2)O1` (some centres unmarked) [Compound 189]: the IC50 is at most 2000 nM.

For `COc1cccc([C@]23CCN(C(=O)c4ccc(OCCOC(F)(F)F)c(C)c4)CC2OCO3)n1` (some centres unmarked) [Compound 190], the IC50 was at most 2000 nM.

Turning to `Cc1nc(C(=O)N2CCC3(c4ccccc4)CC3C2)ccc1OCCOC(F)(F)F` (centres unmarked) [Compound 191], the IC50 was at most 2000 nM.

As for `COc1cccc([C@]23CCN(C(=O)c4ccc(OCCOC(F)(F)F)c(OC)c4)CC2OCO3)n1` (some centres unmarked) [Compound 192], the concentration for half-maximal inhibition (IC50) was at most 2000 nM.

In the case of `COc1cc(C(=O)N2CC[C@]3(c4cccc(F)c4)OCOC3C2)ccc1OCC1CC(F)(F)C1` (some centres unmarked) [Compound 193], the IC50 is at most 2000 nM.

For `Cc1cccc([C@]23CCN(C(=O)c4ccc(OCCOC(F)(F)F)c(C)c4)CC2OCO3)n1` (some centres unmarked) [Compound 194], the IC50 is at most 2000 nM.

Turning to `COc1cc(C(=O)N2CCC3(c4ccccc4)CC3C2)ccc1OCCOC(F)(F)F` (centres unmarked) [Compound 195], the IC50 was at most 2000 nM.

Take `COc1nc(C(=O)N2CC[C@]3(c4cccc(F)c4)OCOC3C2)ccc1OCC1C2CC(F)(F)CC12` (some centres unmarked) [Compound 196]: the IC50 was at most 2000 nM.

For `COc1cc(C(=O)N2CC[C@]3(c4cc(C(F)(F)F)ccn4)OCOC3C2)ccc1OCC(F)(F)C(F)F` (some centres unmarked) [Compound 197], the IC50 was at most 2000 nM.

For the compound `COc1cc(C(=O)N2CC[C@]3(c4cc(C(F)(F)F)ccn4)OCOC3C2)ccc1OCC1(C(F)(F)F)CC1` (some centres unmarked) [Compound 198], the IC50 was at most 2000 nM.

As to `COc1cc(C(=O)N2CC[C@]3(c4cccc(F)c4)OCOC3C2)ccc1N(C)CC1CC(F)(F)C1` (some centres unmarked) [Compound 199], the IC50 was at most 2000 nM.

With `COc1nc(C(=O)N2CC[C@]3(c4cccc(F)c4)OCOC3C2)ccc1OCCC1CC(F)(F)C1` (some centres unmarked) [Compound 200], the half-inhibitory concentration (IC50) was at most 2000 nM.

For `O=C(c1ccc(OCCOC(F)(F)F)c(Cl)c1)N1CC[C@]2(c3ccccn3)COC2C1` (some centres unmarked) [Compound 201], the 50% inhibitory concentration (IC50) was at most 2000 nM.

Turning to `O=C(c1ccc(OCCOC(F)(F)F)c(Cl)c1)N1CC[C@@]2(c3ccccn3)COC2C1` (some centres unmarked) [Compound 202], the half-maximal inhibitory concentration (IC50) was at most 2000 nM.

With `COc1ccnc([C@]23CCN(C(=O)c4ccc(OCC5CC(F)(F)C5)c(OC)c4)CC2OCO3)c1` (some centres unmarked) [Compound 203], the IC50 was at most 2000 nM.

As for `COc1cc(C(=O)N2CC[C@]3(c4cc(C(F)(F)F)ccn4)OCOC3C2)ccc1OCC1CCC(F)(F)C1` (some centres unmarked) [Compound 204], the IC50 is at most 2000 nM.

`CC(C)(F)COc1ccc(C(=O)N2CC[C@@]3(c4ccccn4)CO[C@H]3C2)cc1C(F)(F)F` [Compound 205]: the IC50 was above 5000 nM.

Turning to `Cc1cc(C(=O)N2CC[C@@]3(c4ccccn4)COC3C2)ccc1OCCOC(F)(F)F` (some centres unmarked) [Compound 206], the half-maximal inhibitory concentration (IC50) is at most 2000 nM.

As for `O=C(c1ccc(OCC2(C(F)(F)F)CC2)c(Cl)c1)N1CC[C@]2(c3ccccn3)COC2C1` (some centres unmarked) [Compound 207], the IC50 is at most 2000 nM.

Consider `O=C(c1ccc(OCC2CC(F)(F)C2)c(Cl)c1)N1CC[C@@]2(c3ccccn3)COC2C1` (some centres unmarked) [Compound 208], for which the IC50 is at most 2000 nM.

`COc1nc(C(=O)N2CC[C@@]3(c4ccccn4)COC3C2)ccc1OCC(F)(F)C(F)F` (some centres unmarked) [Compound 209]: the IC50 is at most 2000 nM.

On to `COc1cc(C(=O)N2CC[C@@]3(c4ccccn4)COC3C2)ccc1OCC1CC(F)(F)C1` (some centres unmarked) [Compound 210], for which the IC50 lay within 2000 to 5000 nM.

Consider `COc1cc(C(=O)N2CC[C@]3(c4cccc(F)c4)OCOC3C2)ccc1NCC1CC(F)(F)C1` (some centres unmarked) [Compound 211], for which the IC50 was at most 2000 nM.

On to `COc1cc(C(=O)N2CC[C@@]3(c4cccc(F)c4)OCOC3C2)ccc1OC(C)C(F)(F)F` (some centres unmarked) [Compound 212], for which the IC50 was in the range of 2000 to 5000 nM.

These data come from patent US10233191B2, “Fused piperidine amides as modulators of ion channels” (Vertex Pharmaceuticals Incorporated, priority 2013, dated 2019).
